Measurements as given in PubChem BioAssay AID1963842 (Molecular Pharmacology Branch, DTP, NCI, 2024).
pIC50: −log10 of the molar value.

Test system: 677734-321-R-J1-PDC complex spheroid viability
Test: Anticancer human tumor 677734-321-R-J1-PDC patient-derived soft tissue sarcoma cell line growth inhibition [POLQ]
Conditions: for pIC50: curve of first compound; for viability, T/C: stronger effect = lower value
Procedure, shortened: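 Growth inhibition in 3D: complex spheroids (tumor PDC, HUVEC, MSC) treated with POLQ inhibitor combinations; where Cmax unknown, highest tested concentration 10 microM, except SN-38 at 1 microM.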

[1] = second compound 0.0316 µM, first compound 0.0316 µM
[2] = second compound 0.0316 µM, first compound 0.1 µM
[3] = second compound 0.0316 µM, first compound 0.316 µM
[4] = second compound 0.0316 µM, first compound 1 µM
[5] = second compound 0.0316 µM, first compound 3.16 µM
[6] = second compound 0.0316 µM, first compound 10 µM
[7] = second compound 0.1 µM, first compound 0.0316 µM
[8] = second compound 0.1 µM, first compound 0.1 µM
[9] = second compound 0.1 µM, first compound 0.316 µM
[10] = second compound 0.1 µM, first compound 1 µM
[11] = second compound 0.1 µM, first compound 3.16 µM
[12] = second compound 0.1 µM, first compound 10 µM
[13] = second compound 0.316 µM, first compound 0.0316 µM
[14] = second compound 0.316 µM, first compound 0.1 µM
[15] = second compound 0.316 µM, first compound 0.316 µM
[16] = second compound 0.316 µM, first compound 1 µM
[17] = second compound 0.316 µM, first compound 3.16 µM
[18] = second compound 0.316 µM, first compound 10 µM
[19] = second compound 1 µM, first compound 0.0316 µM
[20] = second compound 1 µM, first compound 0.1 µM
[21] = second compound 1 µM, first compound 0.316 µM
[22] = second compound 1 µM, first compound 1 µM
[23] = second compound 1 µM, first compound 3.16 µM
[24] = second compound 1 µM, first compound 10 µM
[25] = second compound 3.16 µM, first compound 0.0316 µM
[26] = second compound 3.16 µM, first compound 0.1 µM
[27] = second compound 3.16 µM, first compound 0.316 µM
[28] = second compound 3.16 µM, first compound 1 µM
[29] = second compound 3.16 µM, first compound 3.16 µM
[30] = second compound 3.16 µM, first compound 10 µM
[31] = second compound 10 µM, first compound 0.0316 µM
[32] = second compound 10 µM, first compound 0.1 µM
[33] = second compound 10 µM, first compound 0.316 µM
[34] = second compound 10 µM, first compound 1 µM
[35] = second compound 10 µM, first compound 3.16 µM
[36] = second compound 10 µM, first compound 10 µM
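Note: spheroids exposed to compounds for one week.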
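Throughout, for viability, T/C: 100% = vehicle DMSO treated spheroids.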

CC1COCCN1c1cc(C2(O)CC3CCC(C2)O3)c2cnn(-c3ccn[nH]3)c2n1 (stereo unspecified) + COC1C(OC(N)=O)C(O)C(Oc2ccc3c(O)c(NC(=O)c4ccc(O)c(CC=C(C)C)c4)c(=O)oc3c2C)OC1(C)C
pIC50 (second compound 0.0316 µM): 6.88 | pIC50 (second compound 0.1 µM): 6.82 | pIC50 (second compound 0.316 µM): 7.06 | pIC50 (second compound 1 µM): 6.94 | pIC50 (second compound 3.16 µM): 7.01 | pIC50 (second compound 10 µM): 7.07 | viability, T/C [1]: 87.1% | viability, T/C [2]: 58.1% | viability, T/C [3]: 24.2% | viability, T/C [4]: 16.8% | viability, T/C [5]: 17.9% | viability, T/C [6]: 16.3% | viability, T/C [7]: 92.9% | viability, T/C [8]: 64.7% | viability, T/C [9]: 22.7% | viability, T/C [10]: 16.4% | viability, T/C [11]: 13.5% | viability, T/C [12]: 13.3% | viability, T/C [13]: 80.2% | viability, T/C [14]: 46.2% | viability, T/C [15]: 22.6% | viability, T/C [16]: 19.1% | viability, T/C [17]: 14.7% | viability, T/C [18]: 13.8% | viability, T/C [19]: 92.5% | viability, T/C [20]: 54.2% | viability, T/C [21]: 18.6% | viability, T/C [22]: 15.9% | viability, T/C [23]: 17.1% | viability, T/C [24]: 14.2% | viability, T/C [25]: 85.3% | viability, T/C [26]: 49% | viability, T/C [27]: 25.4% | viability, T/C [28]: 16.7% | viability, T/C [29]: 15.2% | viability, T/C [30]: 14.6% | viability, T/C [31]: 89.6% | viability, T/C [32]: 43.9% | viability, T/C [33]: 21.3% | viability, T/C [34]: 15.6% | viability, T/C [35]: 16.1% | viability, T/C [36]: 15.4%

O=C(Nc1ccc(O)c(NS(=O)(=O)c2ccc(F)cc2)c1)c1ccc(-c2ccccc2)cc1 + COC1C(OC(N)=O)C(O)C(Oc2ccc3c(O)c(NC(=O)c4ccc(O)c(CC=C(C)C)c4)c(=O)oc3c2C)OC1(C)C
pIC50 (second compound 0.0316 µM): 5.14 | pIC50 (second compound 0.1 µM): 5.12 | pIC50 (second compound 0.316 µM): 5.06 | pIC50 (second compound 1 µM): 5.13 | pIC50 (second compound 3.16 µM): 5.09 | pIC50 (second compound 10 µM): 5.16 | viability, T/C [1]: 112% | viability, T/C [2]: 100% | viability, T/C [3]: 102% | viability, T/C [4]: 101% | viability, T/C [5]: 85.9% | viability, T/C [6]: 35.6% | viability, T/C [7]: 104% | viability, T/C [8]: 106% | viability, T/C [9]: 99.2% | viability, T/C [10]: 101% | viability, T/C [11]: 101% | viability, T/C [12]: 33.8% | viability, T/C [13]: 111% | viability, T/C [14]: 99.9% | viability, T/C [15]: 104% | viability, T/C [16]: 106% | viability, T/C [17]: 97.9% | viability, T/C [18]: 43.8% | viability, T/C [19]: 108% | viability, T/C [20]: 109% | viability, T/C [21]: 110% | viability, T/C [22]: 101% | viability, T/C [23]: 92.1% | viability, T/C [24]: 35.8% | viability, T/C [25]: 109% | viability, T/C [26]: 101% | viability, T/C [27]: 108% | viability, T/C [28]: 103% | viability, T/C [29]: 84.9% | viability, T/C [30]: 42.7% | viability, T/C [31]: 103% | viability, T/C [32]: 108% | viability, T/C [33]: 102% | viability, T/C [34]: 100% | viability, T/C [35]: 81.7% | viability, T/C [36]: 34.6%

CC(=O)O[C@H]1C(=O)[C@@]2(C)[C@H]([C@H](OC(=O)c3ccccc3)[C@]3(O)C[C@H](OC(=O)[C@H](O)[C@@H](NC(=O)c4ccccc4)c4ccccc4)C(C)=C1C3(C)C)[C@]1(OC(C)=O)CO[C@@H]1C[C@@H]2O + Cc1cccc(N(C)C(=O)C2C(O)CCN2c2nc(C)cc(C(F)(F)F)c2C#N)c1
pIC50 (second compound 0.0316 µM): > 8.02 | pIC50 (second compound 0.1 µM): > 8.02 | pIC50 (second compound 0.316 µM): > 8.02 | pIC50 (second compound 1 µM): > 8.02 | pIC50 (second compound 3.16 µM): > 8.02 | pIC50 (second compound 10 µM): > 8.02 | viability, T/C (second compound 0.0316 µM, first compound 0.00949 µM): 21.8% | viability, T/C (second compound 0.0316 µM, first compound 0.03 µM): 14.4% | viability, T/C (second compound 0.0316 µM, first compound 0.0949 µM): 14.1% | viability, T/C (second compound 0.0316 µM, first compound 0.3 µM): 12.6% | viability, T/C (second compound 0.0316 µM, first compound 0.949 µM): 10.9% | viability, T/C (second compound 0.0316 µM, first compound 3 µM): 12.8% | viability, T/C (second compound 0.1 µM, first compound 0.00949 µM): 23.7% | viability, T/C (second compound 0.1 µM, first compound 0.03 µM): 16.1% | viability, T/C (second compound 0.1 µM, first compound 0.0949 µM): 13.6% | viability, T/C (second compound 0.1 µM, first compound 0.3 µM): 13.3% | viability, T/C (second compound 0.1 µM, first compound 0.949 µM): 13.5% | viability, T/C (second compound 0.1 µM, first compound 3 µM): 15.6% | viability, T/C (second compound 0.316 µM, first compound 0.00949 µM): 22.8% | viability, T/C (second compound 0.316 µM, first compound 0.03 µM): 18.9% | viability, T/C (second compound 0.316 µM, first compound 0.0949 µM): 12.4% | viability, T/C (second compound 0.316 µM, first compound 0.3 µM): 10.3% | viability, T/C (second compound 0.316 µM, first compound 0.949 µM): 12.4% | viability, T/C (second compound 0.316 µM, first compound 3 µM): 13.9% | viability, T/C (second compound 1 µM, first compound 0.00949 µM): 26% | viability, T/C (second compound 1 µM, first compound 0.03 µM): 23.1% | viability, T/C (second compound 1 µM, first compound 0.0949 µM): 14% | viability, T/C (second compound 1 µM, first compound 0.3 µM): 11.4% | viability, T/C (second compound 1 µM, first compound 0.949 µM): 9.6% | viability, T/C (second compound 1 µM, first compound 3 µM): 9.4% | viability, T/C (second compound 3.16 µM, first compound 0.00949 µM): 23.6% | viability, T/C (second compound 3.16 µM, first compound 0.03 µM): 13.4% | viability, T/C (second compound 3.16 µM, first compound 0.0949 µM): 12.2% | viability, T/C (second compound 3.16 µM, first compound 0.3 µM): 12.8% | viability, T/C (second compound 3.16 µM, first compound 0.949 µM): 12% | viability, T/C (second compound 3.16 µM, first compound 3 µM): 14.6% | viability, T/C (second compound 10 µM, first compound 0.00949 µM): 27.3% | viability, T/C (second compound 10 µM, first compound 0.03 µM): 12.4% | viability, T/C (second compound 10 µM, first compound 0.0949 µM): 12.2% | viability, T/C (second compound 10 µM, first compound 0.3 µM): 14.5% | viability, T/C (second compound 10 µM, first compound 0.949 µM): 11.3% | viability, T/C (second compound 10 µM, first compound 3 µM): 11.4%
